Where two headings read alike, the source gives them in different places.
What was measured:
[1] = system: 5-LO product LTC4 from isolated human monocytes; assay: Inhibition of 5-LO product LTC4 from isolated human monocytes (A23187); format: cell-based; details: calcium ionophore A23187, 95% confidence interval in brackets, read-out: Human monocyte LTC4 IC50 (CI)
Protocol: Mononuclear cells were first isolated from heparinised blood using the Ficoll-Hypaque gradient centrifugation method. Monocytes were subsequently purified by adherence to plastic according to standard protocols. The purity of the adherent monocytes (CD14+) was routinely confirmed by flow cytometry to be >95% and viability (by trypan blue exclusion method) was routinely >97%. Adherent monocytes were then washed and incubated in 190 µl culture medium RPMI-1640 supplemented with 100 U/ml penicillin, 100 µg/ml streptomycin and 10% heat-inactivated foetal bovine serum (Sigma-Aldrich, St Louis, MO). […] After further incubation for 15 min, the culture supernatants were recovered by centrifugation and stored at −40 °C pending LTC4 determination.
(§1) Appropriately diluted supernatants were assayed for the released products – LTs (LTB4 and LTC4), by the enzyme immunoassay (EIA) method using assay kits supplied by R&D Systems (Minneapolis, MN) and following the manufacturer’s instructions.
(§2) All data were analysed using GraphPad Prism software (GraphPad Software, San Diego, CA). […] Differences between experimental groups were first analysed by one-way ANOVA, followed by Bonferroni’s post-hoc test. A p-value of less than 0.05 was taken as statistically significant.

[2] = system: 5-LO-dependent generation of LTB4 from activated human whole blood; assay: Inhibition of 5-LO product LTB4 from activated human whole blood (LPS/FMLP); format: cell-based; details: LPS-primed, FMLP-stimulated human whole blood; 95% confidence interval in brackets; read-out: Human whole blood LTB4 IC50 (CI)
Protocol: All compounds were evaluated for inhibitory activity against the 5-LO-dependent generation of LTB4 from activated human whole blood. With ethical approval from the Health Sciences Centre Ethical Committee of Kuwait University, heparinised fresh human blood samples from apparently healthy individuals of both sexes were obtained from the Kuwait Central Blood Bank. All donors gave informed consent and the work was carried out in accordance with the “Declaration of Helsinki” for experiments involving human subjects. Aliquots of 185 µl of whole blood were dispensed into each well of a 96-well culture plate containing 5 µl of the priming agent, LPS (1 µg/ml final concentration). […] After further incubation for 15 min at 37 °C, 5 µl of FMLP (1 µM final concentration) was added to stimulate LT production. The reaction was stopped 15 min later, and the supernatants were recovered by centrifugation and stored at −40 °C pending analysis of LTB4 content.
as §1, §2

[3] = system: 5-LO product LTC4 from allergen/IgE-activated bone marrow-derived mouse mast cells (BMMC); assay: Inhibition of 5-LO product LTC4 from allergen/IgE-activated bone marrow-derived mouse mast cells (BMMC); format: cell-based; details: anti-DNP IgE/DNP-BSA-activated BMMC, 95% confidence interval in brackets, read-out: Mouse mast cell LTC4 IC50 (CI)
Protocol: Bone marrow-derived mast cells (BMMC) were generated from pathogen-free 5 to 7-weeks-old male Balb/c mice according to the method of Davis et al.[28]. Essentially, bone marrow cells were obtained by flushing the femoral bone marrow and the recovered cells cultured in RPMI 1640 medium supplemented with 10% FBS, 100 U/ml penicillin, and 100 µg/ml streptomycin, 25 mM HEPES, 1.0 mM sodium pyruvate, 0.1 mM nonessential amino acids, 0.0035% 2-mercaptoethanol, and 30 ng/ml mouse recombinant IL-3, with culture medium, replaced every 2 days. Cells were used after 4–8 weeks of culture, by which time at least 97% of the cells would have differentiated into mast cells, as routinely obtained in our laboratory.
The generated BMMCs were seeded at 5 × 10^4 cells/well in a 96-well flat-bottom culture plate and passively sensitised overnight with 0.5 µg/ml anti-DNP monoclonal IgE antibody. The cells were then washed twice to remove any unbound antibody and subsequently resuspended in reaction buffer (135 mM NaCl, 5 mM KCl, 1.8 mM CaCl2, 1 mM MgCl2, 5.6 mM glucose, 0.05% BSA and 20 mM HEPES, pH 7.4). They were then pre-incubated with the test compounds (0.001 − 30 μM) or the solvent (0.05% DMSO) for 15 min before being stimulated with the specific antigen, DNP-BSA (10–30 ng/ml). After 30 min incubation at 37 °C, the amount of LTC4 released into the supernatant was determined by ELISA as described below.
as §1, §2

recombinant human 5-LO = target: T1, recombinant human 5-LO (Homo sapiens, UniProt P09917); assay: Direct inhibition of 5-LO activity in a cell-free assay (H2DCF-DA fluorescence); format: biochemical; details: for IC50: cell-free, recombinant human 5-LO, 95% confidence interval in brackets
T1 sequence (P09917 1-674): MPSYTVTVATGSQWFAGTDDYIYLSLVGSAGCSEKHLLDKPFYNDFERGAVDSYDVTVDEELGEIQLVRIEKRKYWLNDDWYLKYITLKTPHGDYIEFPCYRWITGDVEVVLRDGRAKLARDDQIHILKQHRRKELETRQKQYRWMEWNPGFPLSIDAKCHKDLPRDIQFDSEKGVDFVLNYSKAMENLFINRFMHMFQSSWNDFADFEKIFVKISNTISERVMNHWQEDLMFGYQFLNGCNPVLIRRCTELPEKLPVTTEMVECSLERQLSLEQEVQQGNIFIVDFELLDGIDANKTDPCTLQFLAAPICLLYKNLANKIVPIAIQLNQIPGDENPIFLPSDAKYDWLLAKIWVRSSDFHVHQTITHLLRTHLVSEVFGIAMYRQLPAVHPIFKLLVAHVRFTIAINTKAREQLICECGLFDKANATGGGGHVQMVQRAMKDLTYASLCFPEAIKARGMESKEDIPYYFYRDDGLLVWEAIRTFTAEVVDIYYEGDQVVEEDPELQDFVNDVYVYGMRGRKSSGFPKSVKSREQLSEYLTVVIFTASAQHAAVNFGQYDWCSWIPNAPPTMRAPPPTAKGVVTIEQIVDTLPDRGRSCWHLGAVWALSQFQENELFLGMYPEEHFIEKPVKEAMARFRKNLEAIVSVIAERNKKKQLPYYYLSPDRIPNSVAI
Protocol: The assay was based on the oxidation of the dye 2′,7′-dichlorodihydrofluorescein diacetate (H2DCF-DA) to a highly fluorescent product by 5-LO enzymatic products. H2DCF-DA (60 µM) was first pre-cleaved by incubating with 450 mU/ml recombinant human 5-LO enzyme in Tris buffer (containing 50 mM Tris, pH = 7.5, 2 mM EDTA, 2 mM CaCl2, 1 mM DTT and 0.6 U/ml glutathione peroxidase) for 10 min at room temperature. […] After 10 min incubation at room temperature, the reaction was started with the addition of 50 µl of substrate solution (Tris buffer containing 20 µM ATP and 20 µM arachidonic acid (AA). After a further 20 min, the reaction was terminated with 100 µl acetonitrile. Fluorescence was read at 500 nm excitation and 520 nm emission, with Novostar^R microplate reader (BMG Labtech, Offenburg, Germany). Appropriate controls, including 100 µM nordihydroguaiaretic acid (NDGA), were included to isolate only the 5-LO-attributable, NDGA-inhibitable RFU values.
as §2

[4] = system: leukotriene (LT) biosynthesis / 5-LO; assay: Overall activity across the four in vitro test systems (three cell-based LT release assays and 5-LO); details: for Activity across the in vitro test systems (in words): cell-based systems and cell-free 5-LO
Protocol: Furthermore, in order to confirm that the in vitro inhibitory activity of the compounds was not due to the direct toxic effects on the cells, the effect of the compounds on the viability of isolated human monocytes after 3 h and 24 h treatment was performed. Finally, in vivo anti-inflammatory studies were performed using the zymosan-induced peritoneal inflammation model in mice, which is a well-known model in which the LTs are known to play a critical role[26].
The inhibitory activity data for the tested compounds obtained in three cell-based in vitro test systems - LTB4 release from human whole blood, LTC4 release from isolated human monocytes and LTC4 release from IgE/antigen-activated mouse mast cells, are shown in Table 1. Similar data on the direct inhibitory effect on the enzymatic activity of recombinant human 5-LO, together with the calculated Clog P (log of partition coefficient) values, which is an indication of the lipophilicity of each compound, are also shown in Table 1.

[5] = read-out: Direct inhibition of 5-LO activity. IC50 (CI)

| SMILES | IC50 ([1]; Monocyte) [µM] | IC50 [2] [µM] | IC50 ([3]; Mus musculus) [µM] | IC50 (recombinant human 5-LO; [5]) [µM] | IC50 [1] [µM] | IC50 [3] [µM] | Activity across the in vitro test systems (in words) [4] | IC50 (recombinant human 5-LO) [µM] | melting point [°C] | Inhibition of isolated 5-LO enzyme activity (in words) (recombinant human 5-LO; cell-free experiments) | IC50 ([4]; summary statements, in vitro test systems, read-out: IC50 (test system not specified / across test systems)) [µM] |
| --- | --- | --- | --- | --- | --- | --- | --- | --- | --- | --- | --- |
| CC(c1cc2ccccc2s1)N(O)C(N)=O (racemic) [Zileuton, (±)1–(1-(benzo[b]thiophen-2-yl)-ethyl)-1-hydroxyurea, reference compound] | 0.5 | 0.7 | 0.4 | – | – | – | – | – | – | – | – |
| O=C(C1CC1)N(O)C[C@H]1CN(c2ccc(N3CCOCC3)c(F)c2)C(=O)O1 [PH-211] | – | 1.3 | – | 3.5 | 7.5 | 8.7 | active in all four test systems | – | – | – | – |
| CC(C)CC(=O)ON(C[C@H]1CN(c2ccc(N3CCOCC3)c(F)c2)C(=O)O1)C(=O)CC(C)C [PH-237, (R)-N-((3-(3-fluoro-4-morpholinophenyl)-2-oxooxazolidin-5-yl)methyl)-3-methyl-N-((3-methylbutanoyl)oxy)butanamide] | > 50 | > 50 | > 50 | – | – | – | inactive in both systems | > 30 | 89 to 90 | – | – |
| CC(C)CC(=O)N(O)C[C@H]1CN(c2ccc(N3CCOCC3)c(F)c2)C(=O)O1 [PH-239, (R)-N-((3-(3-fluoro-4-morpholinophenyl)-2-oxooxazolidin-5-yl)methyl)-N-hydroxy-3-methylbutanamide] | 8 | 3.5 | 3.1 | – | – | – | active in all four test systems | 4.7 | 122 to 124.5 | – | – |
| CCCCC(=O)N(O)C[C@H]1CN(c2ccc(N3CCOCC3)c(F)c2)C(=O)O1 [PH-241, (R)-N-((3-(3-fluoro-4-morpholinophenyl)-2-oxooxazolidin-5-yl)methyl)-N-hydroxypentanamide] | 3.2 | 2.2 | 2.8 | – | – | – | active in all four test systems | 3.3 | – | – | – |
| O=C(C1CCCC1)N(O)C[C@H]1CN(c2ccc(N3CCOCC3)c(F)c2)C(=O)O1 [PH-244, (R)-N-((3-(3-fluoro-4-morpholinophenyl)-2-oxooxazolidin-5-yl)methyl)-N-hydroxycyclopentanecarboxamide] | – | 5.5 | – | – | – | – | – | – | – | – | – |
| O=C(C1CCC1)N(O)C[C@H]1CN(c2ccc(N3CCOCC3)c(F)c2)C(=O)O1 [PH-245, (R)-N-((3-(3-fluoro-4-morpholinophenyl)-2-oxooxazolidin-5-yl)methyl)-N-hydroxycyclobutanecarboxamide] | – | 3.4 | – | – | – | – | – | – | – | – | – |
| CCCCCC(=O)ON(C[C@H]1CN(c2ccc(N3CCOCC3)c(F)c2)C(=O)O1)C(=O)CCCCC [PH-246] | – | 1.5 | – | 21.6 | 7.1 | 3.3 | – | – | – | very weak | – |
| CCCCCC(=O)N(O)C[C@H]1CN(c2ccc(N3CCOCC3)c(F)c2)C(=O)O1 [PH-247, (R)-N-((3-(3-fluoro-4-morpholinophenyl)-2-oxooxazolidin-5-yl)methyl)-N-hydroxyhexanamide] | 2.5 | 2.3 | 2.9 | – | – | – | active in all four test systems | 3.4 | 118.5 to 120.5 | – | – |
| CCCCCCCC(=O)N(O)C[C@H]1CN(c2ccc(N3CCOCC3)c(F)c2)C(=O)O1 [PH-251, (R)-N-((3-(3-fluoro-4-morpholinophenyl)-2-oxooxazolidin-5-yl)methyl)-N-hydroxyoctanamide] | 2.4 | 1.9 | 0.2 | – | – | – | active in all four test systems | 1.6 | – | – | < 1 |

Source: PMC7470027, “Synthesis and structure-activity relationships of novel 5-(hydroxamic acid)methyl oxazolidinone derivatives as 5-lipoxygenase inhibitors” (Journal of Enzyme Inhibition and Medicinal Chemistry, 2020)
